We go through four compounds from US8084049B2, “Complexes of fatty acid esters of polyhydroxyalkanes and pyridine carboxy derivatives” (priority 2002, dated 2011).

In test [1] the test system is 12-O-tetradecanoylphorbol-13-acetate (TPA) induced mouse ear inflammation. Kind of test: acute TPA induced mouse ear inflammation model (Example 111). The conditions noted are these: vs vehicle. Format: in vivo, female BALB/ca mice.
Text: This was done by comparing a high dose, corresponding to Emax (the maximal obtainable effect representing the plateau of the dose-response curve) with the individual effects of the molar amount present of each component of the complex. If the effect of the complex is higher than the sum of the components the effect is synergistic. […] The positive control used in this study was betamethasone 17-valerate applied as a commercial preparation with maximum human dose (Celeston® Cutaneous Solution 0.1%, Shering-Plough).
The test substances were administered 20 minutes before and 20 minutes after application of TPA to the ear.
All groups were treated with 20 μl TPA solution 400 μg/ml in acetone, on the right ear.
Three hours after the TPA application the mice were sacrificed, the ears cut from the tip with a punch biopsy knife (8 mm diameter) and weighed.
Differences in relative ear oedema between the vehicle treated group and the other groups were tested for significance employing a non-parametric statistical method of analysis, the Mann-Whitney U test. The required level of significance was p<0.05.
Test [2] relates to Microsporum canis. The test can be described thus: antimicrobial MIC test (Example 113). Type of test: cell-based. The settings on record: 1 to 4 days culture; initial test concentration 3 mM in 1% DMSO and dilutions. The method, then:
(§1) Test substance or vehicle is added to test wells containing the selected microorganisms (1×10^4 to 5×10^5 CFU/ml)in cultures grown under controlled conditions. The final innoculum concentration is determined by reference to a standard optical density curve and adjusted as required. After 1 to 4 days, growth of the culture is examined and scored positive (+) for inhibition of growth or turbidity, or negative (−) for no effect upon growth or turbidity. An initial test concentration of 3 mM in 1% DMSO is used and dilutions are tested to establish the minimal inhibitory concentration (MIC).

The test system of test [3] is Trichophyton rubrum. Kind of test: antimicrobial MIC test (Example 113). Type of test: cell-based. The settings on record: 1 to 4 days culture; initial test concentration 3 mM in 1% DMSO and dilutions. How it is done: as §1
The subject of test [4] is Streptococcus faecalis. Kind of test: antimicrobial MIC test (Example 113). Type of test: cell-based. The conditions noted are these: 1 to 4 days culture; initial test concentration 3 mM in 1% DMSO and dilutions. How it is done: as §1
Test [5] deals with Candida albicans. The test can be described thus: antimicrobial MIC test (Example 113). Type of test: cell-based. The conditions noted are these: 1 to 4 days culture; initial test concentration 3 mM in 1% DMSO and dilutions. The method, then: as §1
The test system of test [6] is Epidermophyton floccosum. Kind of test: antimicrobial MIC test (Example 113). Format: cell-based. The settings on record: 1 to 4 days culture; initial test concentration 3 mM in 1% DMSO and dilutions. How it is done:
as §1

The test system of test [7] is sub-chronic TPA induced mouse ear inflammation. The test can be described thus: sub-chronic TPA (repeated application) mouse ear inflammation model (Example 112). Type of test: in vivo, female BALB/ca mice. The method, then: Investigation of two complexes according to the invention in a recognized pharmacodynamic model of sub-chronic inflammation.
The objective of this study was to assess the therapeutic value of the complexes of the invention in a very demanding pharmacodynamic model of dermal inflammation. Repeated application of TPA to the ears of the mice within 48 hours yields an inflammatory lesion with infiltration of leukocytes and persistent swelling. The reapplication of TPA ([…]) after 48 hours produces an inflammation and ear oedema, which is more dramatic due to the involvement and activation of a vast number of inflammatory cells. Therefore the model is suitable for drug evaluation in relation to more aggravated or chronic inflammatory conditions. The test substance for evaluation is co-applied with the second TPA application. […]
Mean weights and standard deviations were calculated. Relative ear oedema was assessed as the weight difference between right and left ear of each mouse expressed as percent of the left ear. Percent inhibition of the relative ear oedema compared with the vehicle treated groups was calculated for the test substance and positive control treated group. […]

“Also recorded” adds a separate entry of the source.

Consider `CCCCCCCC(=O)OCC(O)CO` (racemic) [Rac-1-glyceryl-monocaprylate], for which the “% Inhibition of relative ear oedema” value in test [1] (4.58 μmol/ear, given 20 min before and 20 min after TPA, ears weighed 3 h after TPA) worked out at 22%. Also, the MIC result in test [2], in test [3], in test [4], in test [5] and in test [6] was “Not active at tested” in each case.

`CCCCC(=O)O[C@]1(C(=O)CO)[C@@H](C)C[C@H]2[C@@H]3CCC4=CC(=O)C=C[C@]4(C)[C@@]3(F)[C@@H](O)C[C@@]21C` [Betamethasone 17-valerate]: the “% Inhibition of relative ear oedema” value turned out to be 66% in test [1] (0.02 mg/ear (Celeston Cutaneous Solution 0.1%), 20 min before and after TPA, 3 h after TPA); 31% in test [7] (0.02 mg/ear, 20 min before and after TPA re-application at 48 h, 3 h after TPA, vs vehicle).

For the compound `NC(=O)c1cccnc1` [Niacinamide], the “% Inhibition of relative ear oedema” value in test [1] (64.1 μmol/ear, given 20 min before and 20 min after TPA, ears weighed 3 h after TPA) was determined as 18%.

With `C[C@]12CCC(=O)C=C1CC[C@@H]1[C@@H]2[C@@H](O)C[C@@]2(C)[C@H]1CC[C@]2(O)C(=O)CO` [hydrocortisone], in test [7] (observation of the inventor on mild steroids), the “effect in the sub-chronic TPA model” value is recorded as “no effect; also recorded: no measurable effects”.
